One assay deals with GTL16 cells. As to the kind of experiment: 96-well XTT cell survival assay (GTL16 cells). The format is cell-based. As to conditions: Homo sapiens, GTL 16, 72 hours. On the procedure:
(§1) GTL16 cells were maintained in DMEM Medium supplemented with 10% fetal bovine serum (FBS) 2 mM L-Glutamine and 100 units penicillin/100 μg streptomycin, at 37° C. in 5% CO2.
(§2) Compounds were tested in the following assays in duplicate.
96-well XTT assay (GLT16 cells): One day prior to assay the growth media was aspirated off and assay media was added to cells. On the day of the assay, the cells were grown in assay media containing various concentrations of compounds (duplicates) on a 96-well flat bottom plate for 72 hours at 37° C. in 5% CO2. The starting cell number was 5000 cells per well and volume was 120 μl. At the end of the 72-hour incubation, 40 μl of XTT labeling mixture (50:1 solution of sodium 3′-[1-(phenylaminocarbonyl)-3,4-tetrazolium]-bis (4-methoxy-6-nitro) benzene sulfonic acid hydrate and Electron-coupling reagent: PMS (N-methyl dibenzopyrazine methyl sulfate) were added to each well of the plate. After an additional 5 hours of incubation at 37° C., the absorbance reading at 450 nm with a background correction of 650 nm was measured with a spectrophotometer.
(In general: Formazan colour is commonly taken as a measure of viable cells.)

For another assay, the target named is Met (Homo sapiens, UniProt P08581). Briefly: Met phosphorylation assay in GTL16 cells. It is filed as cell-based. On the set-up: endogenous in cells; host or cells: GTL16 cells. To be noted: compound 1 hour, anti-Phospho-Met (Tyr1234/1235), read-out: Met Phosp. On the procedure: as §1, §2
Chain of Met (P08581 25-1390): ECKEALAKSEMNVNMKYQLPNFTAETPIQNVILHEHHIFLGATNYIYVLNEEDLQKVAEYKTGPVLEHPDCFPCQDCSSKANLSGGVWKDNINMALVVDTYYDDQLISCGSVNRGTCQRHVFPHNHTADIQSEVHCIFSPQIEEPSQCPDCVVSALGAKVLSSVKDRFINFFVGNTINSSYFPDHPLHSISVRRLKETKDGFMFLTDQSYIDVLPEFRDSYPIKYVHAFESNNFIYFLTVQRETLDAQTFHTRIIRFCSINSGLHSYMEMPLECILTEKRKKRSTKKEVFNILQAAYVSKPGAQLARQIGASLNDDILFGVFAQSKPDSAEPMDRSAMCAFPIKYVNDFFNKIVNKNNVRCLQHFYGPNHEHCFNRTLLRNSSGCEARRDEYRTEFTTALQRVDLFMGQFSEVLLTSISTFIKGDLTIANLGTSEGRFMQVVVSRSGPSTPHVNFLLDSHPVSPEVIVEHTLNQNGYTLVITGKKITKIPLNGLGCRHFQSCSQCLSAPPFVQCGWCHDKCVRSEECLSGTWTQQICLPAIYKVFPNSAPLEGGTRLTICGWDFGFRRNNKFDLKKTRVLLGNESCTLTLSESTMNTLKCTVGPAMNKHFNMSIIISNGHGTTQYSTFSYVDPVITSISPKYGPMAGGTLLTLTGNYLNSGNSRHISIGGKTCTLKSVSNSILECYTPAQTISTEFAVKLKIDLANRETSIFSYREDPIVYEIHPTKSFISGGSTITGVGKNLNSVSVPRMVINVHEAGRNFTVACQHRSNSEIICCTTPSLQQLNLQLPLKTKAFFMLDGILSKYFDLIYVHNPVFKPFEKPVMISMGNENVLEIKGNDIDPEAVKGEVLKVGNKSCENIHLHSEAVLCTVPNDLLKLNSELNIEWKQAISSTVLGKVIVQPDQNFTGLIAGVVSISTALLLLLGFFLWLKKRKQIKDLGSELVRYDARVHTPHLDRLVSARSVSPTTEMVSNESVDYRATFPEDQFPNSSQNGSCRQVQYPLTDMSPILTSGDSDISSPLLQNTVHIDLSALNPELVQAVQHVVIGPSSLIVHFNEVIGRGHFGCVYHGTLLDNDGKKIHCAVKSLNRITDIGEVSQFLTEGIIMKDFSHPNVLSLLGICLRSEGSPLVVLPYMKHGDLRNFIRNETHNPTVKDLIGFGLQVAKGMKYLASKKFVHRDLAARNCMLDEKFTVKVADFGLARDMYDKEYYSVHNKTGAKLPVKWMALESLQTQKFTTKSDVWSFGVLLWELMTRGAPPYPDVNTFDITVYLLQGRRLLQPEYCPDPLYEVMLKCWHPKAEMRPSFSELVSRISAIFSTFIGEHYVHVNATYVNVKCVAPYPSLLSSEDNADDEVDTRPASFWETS
Met phosphorylation assay: GTL16 cells were plated out at […] cells per 60×15 mm dish (Falcon) in 3 mL of assay media. The following day compound at various concentrations were added in assay media and incubated for 1 hour at 37° C. 5% CO2. After 1 hour the media was aspirated, and the cells were washed once with 1×PBS. The PBS was aspirated and the cells were harvested in 100 μL of modified RIPA lysis buffer (Tris.Cl pH 7.4, 1% NP-40, 5 mM EDTA, 5 mM NaPP, 5 mM NaF, 150 mM NaCl, Protease inhibitor cocktail (Sigma), 1 mM PMSF, 2 mM NaVO4) and transferred to a 1.7 mL eppendorf tube and incubated on ice for 15 minutes. After lysis, the tubes were centrifuged (10 minutes, 14,000 g, 4° C.). Lysates were then transferred to a fresh eppendorf tube. The samples were diluted 1:2 (250,000 cells/tube) with 2×SDS PAGE loading buffer and heated for 5 minutes at 98° C. The lysates were separated on a NuPage 4-12% Bis-Tris Gel 1.0 mm×12 well (Invitrogen), at 200V, 400 mA for approximately 40 minutes. The samples were then transferred to a 0.45 micron Nitrocellulose membrane Filter Paper Sandwich (Invitrogen) for 1 hour at 75V, 400 mA. After transferring, the membranes were placed in blocking buffer for 1 hour at room temperature with gentle rocking. The blocking buffer was removed and a 1:500 dilution of anti-Phospho-Met (Tyr1234/1235) antibody (Cell Signaling Technologies Cat. # 3126L) in 5% BSA, 0.05% Tween 20 in 1×PBS was added and the blots were incubated overnight at room temperature. The following day the blots were washed three times with 1×PBS, 0.1% Tween20. A 1:3000 dilution of HRP conjugated goat anti-rabbit antibody (Jackson ImmunoResearch Laboratories Cat. # 111-035-003) in blocking buffer, was added and incubated for 1 hr at room temperature with gentle rocking. The blot was wash 3 times in PBS, 0.1% Tween20 and visualized by chemiluminescence with SuperSignal West Pico Chemiluminescent Substrate (Pierce #34078).

The next assay has as its target T1, CDK4/CycD1 (Homo sapiens, UniProt P11802).
T1 construct: purchased ProQuinase GmbH, Freiburg, Germany (assay service)
Briefly: 33PanQuinase Activity Assay (ProQuinase GmbH). It is filed as biochemical. An excerpt: ^33PanQuinase Activity Assay (ProQuinase GmbH) and SelectScreen™ Kinase Profiling (Invitrogen Corp.)
^33PanQuinase Activity Assay is a proprietary, radioisotopic protein kinase assay developed by ProQuinase GmbH, Freiburg, Germany. Details on assay conditions can be found on the company's website.

Each structure is given as a SMILES string.

T1 sequence (P11802 whole entry): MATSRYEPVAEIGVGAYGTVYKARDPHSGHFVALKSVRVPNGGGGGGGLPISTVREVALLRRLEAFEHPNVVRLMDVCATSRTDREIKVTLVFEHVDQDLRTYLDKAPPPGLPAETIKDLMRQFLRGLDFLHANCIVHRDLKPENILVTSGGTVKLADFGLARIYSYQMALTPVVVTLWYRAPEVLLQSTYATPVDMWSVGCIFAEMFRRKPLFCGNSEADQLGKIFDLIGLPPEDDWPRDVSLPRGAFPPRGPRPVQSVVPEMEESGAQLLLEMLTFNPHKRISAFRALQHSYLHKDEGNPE
T1 sequence (P24385 whole entry partner): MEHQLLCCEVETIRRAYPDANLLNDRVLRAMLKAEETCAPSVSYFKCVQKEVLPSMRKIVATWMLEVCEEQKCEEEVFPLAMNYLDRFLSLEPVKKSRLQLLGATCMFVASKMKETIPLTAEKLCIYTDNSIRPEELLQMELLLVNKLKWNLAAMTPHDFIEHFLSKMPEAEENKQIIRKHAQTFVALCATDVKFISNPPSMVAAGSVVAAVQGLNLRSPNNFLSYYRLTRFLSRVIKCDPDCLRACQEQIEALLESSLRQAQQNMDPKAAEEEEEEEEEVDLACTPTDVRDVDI

Regarding `O=C(Nc1nc2[nH]nc(-n3cncc3-c3cccc(F)c3F)c2s1)C1CC1` [Cyclopropanecarboxylic acid {3-[5-(2,3-difluoro-phenyl)-imidazol-1-yl]-1H-pyrazolo[3,4-d]thiazol-5-yl}-amide], the results for the IC50 in the assay on GTL16 cells, on Met and on CDK4/CycD1 were 1000 to 10000 nM, > 10000 nM and < 100 nM, respectively.
With `O=C(Nc1nc2[nH]nc(-n3cncc3-c3ccccc3)c2s1)C1CC1` [Cyclopropanecarboxylic acid [3-(5-phenyl-imidazol-1-yl)-1H-pyrazolo[3,4-d]thiazol-5-yl]-amide], in the assay on GTL16 cells, the IC50 was in the range of 1000 to 10000 nM.
`O=C(Nc1nc2[nH]nc(-n3cncc3-c3c(Cl)cccc3Cl)c2s1)C1CC1` [Cyclopropanecarboxylic acid {3-[5-(2,6-dichloro-phenyl)-imidazol-1-yl]-1H-pyrazolo[3,4-d]thiazol-5-yl}-amide]: the IC50 was < 100 nM with GTL16 cells, 1000 to 10000 nM at Met and < 100 nM against CDK4/CycD1.
As for `O=C(Nc1cc[nH]n1)Nc1nc2[nH]nc(-n3cncc3-c3ccccc3Cl)c2s1` [1-{3-[5-(2-Chloro-phenyl)-imidazol-1-yl]-1H-pyrazolo[3,4-d]thiazol-5-yl}-3-(1H-pyrazol-3-yl)-urea], the IC50 in the assay with GTL16 cells was < 100 nM; at Met, > 10000 nM; at CDK4/CycD1, 100 to 1000 nM.
As for `O=C(Nc1nc2[nH]nc(-n3cncc3-c3cc(Cl)cc(Cl)c3Cl)c2s1)C1CC1` [Cyclopropanecarboxylic acid {3-[5-(2,3,5-trichloro-phenyl)-imidazol-1-yl]-1H-pyrazolo[3,4-d]thiazol-5-yl}-amide], on CDK4/CycD1, the IC50 is 1000 to 10000 nM.
Turning to `O=C(Nc1nc2[nH]nc(-n3cncc3-c3c(Cl)ccc(Cl)c3Cl)c2s1)C1CC1` [Cyclopropanecarboxylic acid {3-[5-(2,3,6-trichloro-phenyl)-imidazol-1-yl]-1H-pyrazolo[3,4-d]thiazol-5-yl}-amide], in the assay with GTL16 cells, the IC50 was 100 to 1000 nM.
Consider `O=C(Nc1nc2[nH]nc(-n3cncc3-c3ccccc3Cl)c2s1)C1CC1` [Cyclopropanecarboxylic acid {3-[5-(2-chloro-phenyl)-imidazol-1-yl]-1H-pyrazolo[3,4-d]thiazol-5-yl}-amide], for which the IC50 in the assay on GTL16 cells is 100 to 1000 nM; on Met, 1000 to 10000 nM; against CDK4/CycD1, < 100 nM.
As to `NC(=O)COc1ccc(-c2cncn2-c2n[nH]c3nc(NC(=O)C4CC4)sc23)c(Cl)c1` [Cyclopropanecarboxylic acid {3-[5-(4-carbamoylmethoxy-2-chloro-phenyl)-imidazol-1-yl]-1H-pyrazolo[3,4-d]thiazol-5-yl}-amide], on CDK4/CycD1, the IC50 is < 100 nM.

For the origin of these results see patent US20070173488A1, “Pyrazolothiazole Protein Kinase Modulators” (SGX Pharmaceuticals, Inc., priority 2005, published 2007).
